In brackets after ≈: the same amount, converted by molar mass.
Columns and labels:
[1] = test system: Nitrosomonas europaea; experiment: In vitro screening of nitrite production by Nitrosomonas europaea; format: cell-based
Protocol: The phenotypic screening involved assessing the nitrification inhibition potency of the selected 5000 compounds against a key ammonia oxidizing bacterium responsible for ammonia oxidation in the soil, Nitrosomonas europaea, in 96-well microtiter plates. N. europaea cells were grown in the presence of an ammonium source, and the potential of putative nitrification inhibitors to inhibit the production of nitrite (NO2) was measured relative to untreated cells. […] Study 1-14

[2] = test system: nitrification; experiment: Table 1 summary: compounds found to work or not work as nitrification inhibitors, Inhib(%); design: concentration or dose not given beside the values; conditions: test and rate not given
Protocol: The phenotypic screening involved assessing the nitrification inhibition potency of the selected 5000 compounds against a key ammonia oxidizing bacterium responsible for ammonia oxidation in the soil, Nitrosomonas europaea, in 96-well microtiter plates. N. europaea cells were grown in the presence of an ammonium source, and the potential of putative nitrification inhibitors to inhibit the production of nitrite (NO2) was measured relative to untreated cells.
A summary of selected compounds initially found to either work or not work as nitrification inhibitors is detailed in Table 1 below.

[3] = test system: nitrification in the soil; experiment: Laboratory soil incubation, Templeton sandy loam with synthetic cow urine, nitrate-N
Protocol: A Templeton sandy loam was used in this experiment. 500 g of soil (dry weight basis) was packed into a pottle. 50 mL of synthetic cow urine with an N concentration of 7 g N/L (comprising about 87% urea-N and 13% glycine-N) was applied to the soil (equivalent to 700 kg N/ha on weight basis, assuming bulk density of 1 g/cm^3 in the top 10 cm of soil). The 700 kg N/ha application was used to simulate the urine-N application rate under a typical dairy cow urine patch in a grazed pasture.
Control treatments also added to soil were: • urine alone (50 mL); • DMSO (equivalent to 0.9 mL/500 g soil)+urine (50 mL) to determine the effect of DMSO on nitrification rate; • water alone (50 mL) (simulating areas of the soil where no urine was deposited).
Pottles were covered with lids with breathing holes to allow for gas exchange during incubation. Pottles were incubated at 12° C. Soil moisture content was maintained at field capacity by adjusting on weight basis twice a week.
Soil samples were collected and were then thoroughly mixed and subsamples were extracted in a potassium chloride solution and analysed for mineral-N. Soil moisture content was also determined. Samples were taken at 30 days after the start of incubation. […]

- IC50 ([1]; Nitrosomonas europaea, read-out: IC50 (nitrite production reduced by half)): 2400 nM
- MIC ([1]; Nitrosomonas europaea, read-out: Minimum Inhibitory Concentration (MIC) of nitrite production): 25 to 50 µM (≈ 3.3 to 6.61 µg/mL)
SMILES: C#Cc1ccc(OC)cc1 [4-Ethynylanisole, 1-ethynyl-4-methoxybenzene]
- rate of nitrite production (OD519 nm) ([1]; 1.56 μM to 400 μM): significantly reduced
- Inhib(%) [2]: 100%
- nitrate-N concentration in the soil compared with urine alone ([3]; Study 1-14, 2 to 20 kg/ha, day 30): significantly lower nitrate-N concentrations
- soil nitrate-N concentration changes with time ([3]; Study 1-14, range of rates 2, 5, 10, 20 kg/ha, days 1, 14, 30): significant inhibition of nitrate production

Source: patent US11578013B2, “Nitrification inhibitors” (Lincoln University, priority 2020, dated 2023)
